# Several values for one entry are separate records, joined by “and”; a condition that tells them apart may be missing. Identical values can stand only once.
# Columns and labels:
# Format in all cases: in vivo, human
# [1] = system: EGFR-mutated locally advanced or metastatic NSCLC; assay: MARIPOSA Phase 3, extracranial progression-free survival by BICR; conditions: CNS-only first progression censored
# From the text: The efficacy population included all patients who had undergone randomization. Extracranial progression-free survival was defined as time from randomization to disease progression (detected by extracranial scans) or death. If first progression was detected solely in the CNS, these patients were censored at the time of CNS disease progression. The dashed lines indicate the median extracranial progression-free survival in the two groups; tick marks indicate censoring of data. 95% CI widths have not been adjusted for multiplicity and cannot be used to infer definitive treatment effects. CNS denotes central nervous system. Since MARIPOSA performed serial brain imaging, a sensitivity analysis was conducted censoring CNS-only, first progression events.
# [2] = system: EGFR-mutated locally advanced or metastatic NSCLC; assay: MARIPOSA Phase 3, progression-free survival by BICR; conditions: for Median progression-free survival (95% CI): median follow-up 22.0 months
# From the text: The primary endpoint of the study is PFS (using RECIST v1.1 guidelines) as assessed by blinded independent central review (BICR).
# Ex19del and L858R ctDNA = assay: MARIPOSA Phase 3, EGFRm ctDNA in blood by ddPCR; conditions: patients with matched samples
# Method: Detection of circulating tumor (ctDNA) and co-mutations were analyzed by next-generation sequencing (NGS) of blood at baseline.
# Detectable EGFRm ctDNA at Baseline and On Treatment: Detection and clearance of Ex19del and L858R ctDNA in the blood were analyzed by ddPCR (Ex19del or L858R by Biodesix ddPCR).
# [3] = system: EGFR-mutant (Ex19del/L858R) advanced NSCLC; assay: MARIPOSA Phase 3, PFS in high-risk subgroups
# Method: Key Eligibility Criteria: locally advanced or metastatic NSCLC, treatment-naïve for advanced disease, documented EGFR Ex19del or L858R, and ECOG PS 0 or 1. […] High-risk subgroups analyzed: liver metastases, brain metastases, TP53 co-mutation, detectable EGFRm ctDNAd at baseline, and without EGFRm ctDNAd clearance at C3D1 (Week 9) (FIG. 16). Detection of ctDNA and co-mutations were analyzed by next-generation sequencing (NGS) of blood at baseline. Detection and clearance of Ex19del and L858R ctDNA in blood were analyzed with ddPCR at baseline and C3D1.
# [4] = system: EGFR-mutated locally advanced or metastatic NSCLC; assay: MARIPOSA Phase 3, progression-free survival after first subsequent therapy (PFS2)
# From the text: The efficacy population included all patients who had undergone randomization. Tick marks indicate censoring of data. […]
structure (smiles),measurement,setting,value
C=CC(=O)Nc1cc(Nc2nccc(-c3cn(C)c4ccccc34)n2)c(OC)cc1N(C)CCN(C)C [Osimertinib],Median extracranial progression-free survival (95% CI),[1],18.4 months
same,PFS 6-month event-free rate (95% CI),[2],"0.85 (0.83, 0.88)"
same,PFS 18-month event-free rate (95% CI),[2],"0.48 (0.43, 0.53)"
same,PFS 24-month event-free rate (95% CI),[2],"0.34 (0.26, 0.39)"
same,PFS 30-month event-free rate (95% CI),[2],"0.30 (0.24, 0.36)"
same,Censored (PFS),[2]; Full Analysis Set,177 (41.3%) (%)
same,Event (PFS),[2]; Full Analysis Set,252 (58.7%) (%)
same,"PFS time to event, 25th percentile (95% CI)",[2]; Full Analysis Set,"9.23 (7.49, 10.94) months"
same,"PFS time to event, 75th percentile (95% CI)",[2]; Full Analysis Set,"NE (27.50, NE)"
same,"Progression-free survival, Patients (95% CI) at 12 months",[2]; efficacy population,65 (60-69) %
same,"Progression-free survival, Patients (95% CI) at 18 months",[2]; efficacy population,48 (43-53) %
same,"Progression-free survival, Patients (95% CI) at 24 months",[2]; efficacy population,34 (28-39) %
same,Median progression-free survival (95% CI),[2],"16.59 (14.78, 18.46) months"
same,Median progression-free survival (95% CI),[2]; listed as osimertinib,16.6 months and 16.59 months
same,Detectable EGFRm ctDNA at C3D1 (Week 9),Ex19del and L858R ctDNA,15%
same,Median PFS,"[3]; detectable baseline ctDNA, Biodesix ddPCR",14.8 months
same,Median PFS,[3]; wild-type TP53 at baseline,19.9 months
same,Median PFS,[3]; with TP53 co-mutations at baseline,12.9 months
same,Median PFS,[3]; with brain metastases at baseline,13.0 months
same,Median PFS,"[3]; with cleared ctDNA at C3D1, Biodesix ddPCR",16.5 months
same,Median PFS,[3]; with liver metastases at baseline,11.0 months
same,Median PFS,[3]; without brain metastases at baseline,19.9 months
same,Median PFS,"[3]; without cleared ctDNA at C3D1, Biodesix ddPCR",9.1 months
same,Median PFS,"[3]; without detectable baseline ctDNA, Biodesix ddPCR",21.9 months
same,Median PFS,[3]; without liver metastases at baseline,18.3 months
same,Censored (PFS2),[4]; Full Analysis Set,299 (60.7%) (%)
same,Event (PFS2),[4]; Full Analysis Set,130 (30.3%) (%)
same,PFS2 6-month event-free rate (95% CI),[4]; Full Analysis Set,"0.95 (0.93, 0.97)"
same,PFS2 18-month event-free rate (95% CI),[4]; Full Analysis Set,"0.76 (0.71, 0.80)"
same,PFS2 30-month event-free rate (95% CI),[4]; Full Analysis Set,"0.56 (0.46, 0.66)"
same,PFS2 Median (95% CI),[4]; Full Analysis Set,"NE (29.31, NE)"
same,"PFS2 time to event, 25th percentile (95% CI)",[4]; Full Analysis Set,"18.40 (15.93, 20.50) months"
same,"PFS2 time to event, 75th percentile (95% CI)",[4]; NE = not estimable,"NE (NE, NE)"

# From patent US20260356957A1, “METHODS FOR TREATMENT OF NON-SMALL CELL LUNG CANCER (NSCLC)” (Janssen Biotech, Inc., priority 2023, published 2026)
